Measured values from US11739101B2, “Bifunctional degraders of hematopoietic progenitor kinase and therapeutic uses thereof” (Nurix Therapeutics, Inc., priority 2020, dated 2023).

Target: T1, HPK1 (Homo sapiens, UniProt Q92918)
T1 construct: A HiBiT tag was introduced by CRISPR on the N terminus of HPK1 in Jurkat cells; host or cells: Jurkat (ATCC TIB-152), monoclonal CRISPR HiBiT knock-in line
Test: HPK1 Cellular HiBiT Degradation Assay
Format: cell-based
Conditions: HiBiT-tagged HPK1 Jurkat cells, 24 hours, 10 uM to 0.1 nM; Dmax = 100 minus lowest % HPK1 remaining vs DMSO vehicle
Protocol: HiBiT HPK1 Jurkat cell lines were used to evaluate the total protein levels of HPK1 in a robust human cellular high throughput format. The level of HPK1 remaining following treatment with HPK1 CTMs is reported as Dmax (maximum degradation) achieved at 24 hours when compared to vehicle treated controls. […] These decreases were not a result of cytotoxicity measured by a parallel viability assessment (CTG). See also Table 1.
A HiBiT tag was introduced by CRISPR on the N terminus of HPK1 in Jurkat cells (ATCC® TIB-152) to allow quantitation of HPK1 protein levels in a monoclonal human cell line. Cells were plated at 1×10^6 cells/mL, 30 uL/well (3×10^4 cells/well) in complete RPMI 1640 (10% heat inactivated FBS, 1% L-glutamine) in 384-well assay plates (Corning, cat. no. 3570). HPK1 chimeric targeting molecules (CTMs) were added in an 11-point dilution series (3.16-fold) with a final assay concentration range of 10 uM to 0.1 nM. The parental Jurkat cell line, with no HiBiT insertion, was included in the assay as a background control. Cells treated with a DMSO vehicle control were used to determine the maximum signal defining 100% HPK1 in the cell. Cells were incubated for 24 hours at 37° C./5% CO2. Following incubation, 30 uL of complete Nano-Glo HiBiT Lytic Detection Reagent (Promega cat. no. N3040) was added. Cells were incubated for 10 minutes at room temperature and luminescence was read on an EnVision plate reader (Perkin Elmer, 0.1 sec per well). Parallel plates were assessed for viability using Cell Titer Glo (Promega) and read on an EnVision plate reader to ensure results were not the effect of cytotoxicity. Percent HPK1 remaining per sample was calculated as follows: […]
% HPK1 remaining values were plotted as a function of compound concentration and curves were fit using the Prism (GraphPad) equation “log(inhibitor) vs response−Variable slope (four parameters)”. Dmax values were calculated by identifying the lowest % remaining and subtracting from 100. Dmax values are provided in Table 1, wherein A>65%, 45%≤B≤65% and C<45%.

T1 sequence (Q92918 whole entry): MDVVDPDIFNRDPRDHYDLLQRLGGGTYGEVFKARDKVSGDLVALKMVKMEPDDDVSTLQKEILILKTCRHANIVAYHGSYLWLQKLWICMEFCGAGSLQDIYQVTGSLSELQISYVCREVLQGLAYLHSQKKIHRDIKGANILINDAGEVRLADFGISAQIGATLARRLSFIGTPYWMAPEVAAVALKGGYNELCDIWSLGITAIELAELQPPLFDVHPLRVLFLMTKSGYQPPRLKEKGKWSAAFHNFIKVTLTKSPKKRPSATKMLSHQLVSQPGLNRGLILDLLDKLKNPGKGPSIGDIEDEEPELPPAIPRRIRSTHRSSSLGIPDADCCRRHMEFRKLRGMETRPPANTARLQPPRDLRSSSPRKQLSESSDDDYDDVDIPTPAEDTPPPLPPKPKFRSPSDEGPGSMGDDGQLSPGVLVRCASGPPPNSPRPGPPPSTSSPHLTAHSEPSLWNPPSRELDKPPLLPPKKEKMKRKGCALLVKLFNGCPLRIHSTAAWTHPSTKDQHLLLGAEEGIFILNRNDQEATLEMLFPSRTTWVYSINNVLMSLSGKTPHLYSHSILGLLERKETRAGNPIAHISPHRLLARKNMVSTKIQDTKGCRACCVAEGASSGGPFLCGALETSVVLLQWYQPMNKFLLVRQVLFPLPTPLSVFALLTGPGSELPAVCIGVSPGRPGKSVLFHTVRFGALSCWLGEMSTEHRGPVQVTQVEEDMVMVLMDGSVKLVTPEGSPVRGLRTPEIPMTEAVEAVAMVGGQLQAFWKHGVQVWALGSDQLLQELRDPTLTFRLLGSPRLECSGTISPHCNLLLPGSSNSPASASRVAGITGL

Q: With Cc1cc(F)c(Nc2nc(-c3ccc4c(c3)N([C@H]3C[C@@H](N5CCCCC5)C3)C(=O)C43CCN(C(=O)c4ccc(C(=O)N5CCN(c6cccc7c6C(=O)N(C6CCC(=O)NC6=O)C7=O)CC5)cc4)CC3)cc3ncn(C(C)C)c23)cc1C(=O)NC(C)C (some centres unmarked) [Example 95, 5-({6-[1′-(4-{4-[2-(2,6-dioxopiperidin-3-yl)-1,3-dioxoisoindol-4-yl]piperazine-1-carbonyl}benzoyl)-2-oxo-1-[(1s,3s)-3-(piperidin-1-yl)cyclobutyl]spiro[indole-3,4′-piperidin]-6-yl]-3-isopropylimidazo[4,5-c]pyridin-4-yl}amino)-4-fluoro-N-isopropyl-2-methylbenzamide] as the compound, how does the Dmax read?
A: 45 to 65%

Q: How did the Dmax turn out when Cc1cc(F)c(Nc2nc(-c3ccc4c(c3)N([C@H]3C[C@@H](N5CCCCC5)C3)C(=O)C43CCN(C(=O)C4CCN(CC5CCN(c6cccc7c6C(=O)N(C6CCC(=O)NC6=O)C7=O)CC5)C4)CC3)cc3ncn(C(C)C)c23)cc1C(=O)NC(C)C (some centres unmarked) [Example 38, 5-[(6-{1′-[1-[(1-{2-[2,6-dioxopiperidin-3-yl]-1,3-dioxo-2,3-dihydro-1H-isoindol-4-yl}piperidin-4-yl)methyl]pyrrolidine-3-carbonyl]-2-oxo-1-[(1s,3s)-3-(piperidin-1-yl)cyclobutyl]-1,2-dihydrospiro[indole-3,4′-piperidin]-6-yl}-3-(propan-2-yl)-3H-imidazo[4,5-c]pyridin-4-yl)amino]-4-fluoro-2-methyl-N-(propan-2-yl)benzamide] was run?
A: > 65%

Q: For Cc1cc(F)c(Nc2nc(-c3ccc4c(c3)N([C@H]3C[C@@H](N5CCCCC5)C3)C(=O)C43CCN(C(=O)Cc4ccc(N5CCN(CC(=O)N[C@H](C(=O)N6C[C@H](O)C[C@H]6C(=O)N[C@@H](C)c6ccc(-c7scnc7C)cc6)C(C)(C)C)CC5)cc4)CC3)cc3ncn(C(C)C)c23)cc1C(=O)NC(C)C [Example 47, (2S,4R)-1-[(2S)-2-(2-{4-[4-(2-{6-[4-({2-fluoro-4-methyl-5-[(propan-2-yl)carbamoyl]phenyl}amino)-3-(propan-2-yl)-3H-imidazo[4,5-c]pyridin-6-yl]-2-oxo-1-[(1s,3s)-3-(piperidin-1-yl)cyclobutyl]-1,2-dihydrospiro[indole-3,4′-piperidin]-1′-yl}-2-oxoethyl)phenyl]piperazin-1-yl}acetamido)-3,3-dimethylbutanoyl]-4-hydroxy-N-[(1S)-1-[4-(4-methyl-1,3-thiazol-5-yl)phenyl]ethyl]pyrrolidine-2-carboxamide], which Dmax is on record?
A: > 65%

Q: Which Dmax does the source give for Cc1cc(F)c(Nc2nc(-c3ccc4c(c3)N([C@H]3C[C@@H](N5CCCCC5)C3)C(=O)C43CCN(CCOCCOCCOCCOCCOCCOCCOCCNc4cccc5c4C(=O)N(C4CCC(=O)NC4=O)C5=O)CC3)cc3ncn(C(C)C)c23)cc1C(=O)NC(C)C (some centres unmarked) [Example 43, 5-[(6-{1′-[23-({2-[2,6-dioxopiperidin-3-yl]-1,3-dioxo-2,3-dihydro-1H-isoindol-4-yl}amino)-3,6,9,12,15,18,21-heptaoxatricosan-1-yl]-2-oxo-1-[(1s,3s)-3-(piperidin-1-yl)cyclobutyl]-1,2-dihydrospiro[indole-3,4′-piperidin]-6-yl}-3-(propan-2-yl)-3H-imidazo[4,5-c]pyridin-4-yl)amino]-4-fluoro-2-methyl-N-(propan-2-yl)benzamide] here?
A: > 65%

Q: Which Dmax does the source give for Cc1cc(F)c(Nc2nc(-c3ccc4c(c3)N([C@H]3C[C@@H](N5CCCCC5)C3)C(=O)C43CCN(C(=O)CN4CCC(c5ccc(C(=O)NCCNc6cccc7c6C(=O)N(C6CCC(=O)NC6=O)C7=O)cc5)CC4)CC3)cc3ncn(C(C)C)c23)cc1C(=O)NC(C)C (some centres unmarked) [Example 90, 5-[(6-{1′-[2-(4-{4-[(2-{[2-(2,6-dioxopiperidin-3-yl)-1,3-dioxoisoindol-4-yl]amino}ethyl)carbamoyl]phenyl}piperidin-1-yl)acetyl]-2-oxo-1-[(1s,3s)-3-(piperidin-1-yl)cyclobutyl]spiro[indole-3,4′-piperidin]-6-yl}-3-isopropylimidazo[4,5-c]pyridin-4-yl)amino]-4-fluoro-N-isopropyl-2-methylbenzamide] here?
A: 45 to 65%

Q: With Cc1cc(F)c(Nc2nc(-c3ccc4c(c3)N([C@H]3C[C@@H](N5CCCCC5)C3)C(=O)C43CCN(C(=O)c4ccc(S(=O)(=O)N5CCN(c6ccc7c(c6)C(=O)N(C6CCC(=O)NC6=O)C7=O)CC5)cc4)CC3)cc3ncn(C(C)C)c23)cc1C(=O)NC(C)C (some centres unmarked) [Example 58, 5-[(6-{1′-[4-({4-[2-(2,6-dioxopiperidin-3-yl)-1,3-dioxo-2,3-dihydro-1H-isoindol-5-yl]piperazin-1-yl}sulfonyl)benzoyl]-2-oxo-1-[(1s,3s)-3-(piperidin-1-yl)cyclobutyl]-1,2-dihydrospiro[indole-3,4′-piperidin]-6-yl}-3-(propan-2-yl)-3H-imidazo[4,5-c]pyridin-4-yl)amino]-4-fluoro-2-methyl-N-(propan-2-yl)benzamide] as the compound, how does the Dmax read?
A: < 45%

Q: Which Dmax does the source give for Cc1cc(F)c(Nc2nc(-c3ccc4c(c3)N([C@H]3C[C@@H](N5CCCCC5)C3)C(=O)C43CCN(C(=O)CCOCCNc4cccc5c4C(=O)N(C4CCC(=O)NC4=O)C5=O)CC3)cc3ncn(C(C)C)c23)cc1C(=O)NC(C)C (some centres unmarked) [Example 11, 5-((6-(1′-(3-(2-((2-(2,6-dioxopiperidin-3-yl)-1,3-dioxoisoindolin-4-yl)amino)ethoxy)propanoyl)-2-oxo-1-((1s,3s)-3-(piperidin-1-yl)cyclobutyl)spiro[indoline-3,4′-piperidin]-6-yl)-3-isopropyl-3H-imidazo[4,5-c]pyridin-4-yl)amino)-4-fluoro-N-isopropyl-2-methylbenzamide] here?
A: < 45%

Q: For Cc1cc(F)c(Nc2nc(-c3ccc4c(c3)N([C@H]3C[C@@H](N5CCCCC5)C3)C(=O)C43CCN(C(=O)C4CCN(C(=O)C5CCC(Nc6cccc7c6C(=O)N(C6CCC(=O)NC6=O)C7=O)CC5)C4)CC3)cc3ncn(C(C)C)c23)cc1C(=O)NC(C)C (stereo partly drawn) [Example 26, 4-fluoro-2-methyl-5-[(6-{2-oxo-1′-[1-[(1R,4R)-4-({2-[2,6-dioxopiperidin-3-yl]-1,3-dioxo-2,3-dihydro-1H-isoindol-4-yl}amino)cyclohexanecarbonyl]pyrrolidine-3-carbonyl]-1-[(1s,3s)-3-(piperidin-1-yl)cyclobutyl]-1,2-dihydrospiro[indole-3,4′-piperidin]-6-yl}-3-(propan-2-yl)-3H-imidazo[4,5-c]pyridin-4-yl)amino]-N-(propan-2-yl)benzamide], which Dmax is on record?
A: 45 to 65%

Q: Which Dmax does the source give for Cc1cc(F)c(Nc2nc(-c3ccc4c(c3)N([C@H]3C[C@@H](N5CCCCC5)C3)C(=O)C43CCN(C(=O)CCCCCCCNc4ccc5c(c4)C(=O)N(C4CCC(=O)NC4=O)C5=O)CC3)cc3ncn(C(C)C)c23)cc1C(=O)NC(C)C (some centres unmarked) [Example 3, 5-((6-(1′-(8-((2-(2,6-dioxopiperidin-3-yl)-1,3-dioxoisoindolin-5-yl)amino)octanoyl)-2-oxo-1-((1s,3s)-3-(piperidin-1-yl)cyclobutyl)spiro[indoline-3,4′-piperidin]-6-yl)-3-isopropyl-3H-imidazo[4,5-c]pyridin-4-yl)amino)-4-fluoro-N-isopropyl-2-methylbenzamide] here?
A: < 45%

Q: Which Dmax does the source give for Cc1cc(F)c(Nc2nc(-c3ccc4c(c3)N([C@H]3C[C@@H](N5CCCCC5)C3)C(=O)C43CCN(C(=O)c4ccc(C(=O)N5CCC(Cc6cccc7c6C(=O)N(C6CCC(=O)NC6=O)C7=O)CC5)cc4)CC3)cc3ncn(C(C)C)c23)cc1C(=O)NC(C)C (some centres unmarked) [Example 77, 5-{[6-(1′-{4-[4-({2-[2,6-dioxopiperidin-3-yl]-1,3-dioxo-2,3-dihydro-1H-isoindol-4-yl}methyl)piperidine-1-carbonyl]benzoyl}-2-oxo-1-[(1s,3s)-3-(piperidin-1-yl)cyclobutyl]-1,2-dihydrospiro[indole-3,4′-piperidin]-6-yl)-3-(propan-2-yl)-3H-imidazo[4,5-c]pyridin-4-yl]amino}-4-fluoro-2-methyl-N-(propan-2-yl)benzamide] here?
A: 45 to 65%

Q: For Cc1cc(F)c(Nc2nc(-c3ccc4c(c3)N([C@H]3C[C@@H](N5CCCCC5)C3)C(=O)C43CCN(C(=O)CN4CCN(c5ccc6c(c5)C(=O)N(C5CCC(=O)NC5=O)C6=O)CC4)CC3)cc3ncn(C(C)C)c23)cc1C(=O)NC(C)C (mixture of isomers) [Example 23, 5-[(6-{1′-[2-(4-{2-[(3RS)-2,6-dioxopiperidin-3-yl]-1,3-dioxo-2,3-dihydro-1H-isoindol-5-yl}piperazin-1-yl)acetyl]-2-oxo-1-[(1s,3s)-3-(piperidin-1-yl)cyclobutyl]-1,2-dihydrospiro[indole-3,4′-piperidin]-6-yl}-3-(propan-2-yl)-3H-imidazo[4,5-c]pyridin-4-yl)amino]-4-fluoro-2-methyl-N-(propan-2-yl)benzamide], which Dmax is on record?
A: < 45%
